# Experimental data taken from patent publication US20250325517A1, “ORAL DOSAGE FORMS OF ELRAGLUSIB” (Actuate Therapeutics, Inc., priority 2022, published 2025).
# Assay: Solubility of elraglusib in acetone, acetone:water and THF with and without polymers (24 h, visual and HPLC)
# Assay type: physicochemical
# Conditions: for time to precipitation when agitated: ~4% w/w solids; for visual observation: stirred
# Method: The solubility of elraglusib API with and without polymers of interest was evaluated in acetone. […] Samples were prepared according to Table 6-13. […] Additional studies were performed to determine if an increased water content would prevent formation of the solvate precipitate and more dilute solutions were tested for potential ASD processing.
smiles,measurement,setting,value
"Cn1cc(C2=C(c3coc4ccc(F)cc34)C(=O)NC2=O)c2cc3c(cc21)OCO3 [elraglusib, 3-(5-fluorobenzofuran-3-yl)-4-(5-methyl-5H-[1,3]dioxolo[4,5-f]indol-7-yl)-1H-pyrrole-2,5-dione]",time remaining soluble,1.5-2.0% w/w in 95:5 acetone:water,over 24 hours
same,time to precipitation when agitated,90:10 acetone:water,3.5 h
same,time to precipitation when agitated,95:5 acetone:water,2 h
same,visual observation,"Table 6-14 Sample 1: 4.02% w/w in Acetone, 30 min",Translucent
same,visual observation,"Table 6-14 Sample 1: 4.02% w/w in Acetone, 1 hour",Translucent
same,visual observation,"Table 6-14 Sample 1: 4.02% w/w in Acetone, 2 hours",Precipitation
same,visual observation,"Table 6-14 Sample 1: 4.02% w/w in Acetone, 4 hours",No change
same,visual observation,"Table 6-14 Sample 1: 4.02% w/w in Acetone, 8 hours",No change
same,visual observation,"Table 6-14 Sample 1: 4.02% w/w in Acetone, 24 hours",No change
same,visual observation,"Table 6-14 Sample 2: 4.02% w/w in THF, 30 min",Translucent
same,visual observation,"Table 6-14 Sample 2: 4.02% w/w in THF, 1 hour",Translucent
same,visual observation,"Table 6-14 Sample 2: 4.02% w/w in THF, 2 hours",Translucent
same,visual observation,"Table 6-14 Sample 2: 4.02% w/w in THF, 4 hours",Translucent
same,visual observation,"Table 6-14 Sample 2: 4.02% w/w in THF, 8 hours",Translucent
same,visual observation,"Table 6-14 Sample 2: 4.02% w/w in THF, 24 hours",Translucent
same,visual observation,"Table 6-14 Sample 3: 4.02% w/w in 95:5 Acetone:Water, 30 min",Translucent
same,visual observation,"Table 6-14 Sample 3: 4.02% w/w in 95:5 Acetone:Water, 1 hour",Translucent
same,visual observation,"Table 6-14 Sample 3: 4.02% w/w in 95:5 Acetone:Water, 2 hours",Precipitation
same,visual observation,"Table 6-14 Sample 3: 4.02% w/w in 95:5 Acetone:Water, 4 hours",No change
same,visual observation,"Table 6-14 Sample 3: 4.02% w/w in 95:5 Acetone:Water, 8 hours",No change
same,visual observation,"Table 6-14 Sample 3: 4.02% w/w in 95:5 Acetone:Water, 24 hours",No change
same,visual observation,"Table 6-14 Sample 4: 3.96% w/w API in Acetone with HPMCAS-MG (7.96% w/w total solids), 30 min",Hazy
same,visual observation,"Table 6-14 Sample 4: 3.96% w/w API in Acetone with HPMCAS-MG (7.96% w/w total solids), 1 hour",Hazy
same,visual observation,"Table 6-14 Sample 4: 3.96% w/w API in Acetone with HPMCAS-MG (7.96% w/w total solids), 2 hours",Hazy but no
same,visual observation,"Table 6-14 Sample 4: 3.96% w/w API in Acetone with HPMCAS-MG (7.96% w/w total solids), 4 hours",Precipitation
same,visual observation,"Table 6-14 Sample 4: 3.96% w/w API in Acetone with HPMCAS-MG (7.96% w/w total solids), 8 hours",No change
same,visual observation,"Table 6-14 Sample 4: 3.96% w/w API in Acetone with HPMCAS-MG (7.96% w/w total solids), 24 hours",No change
same,visual observation,"Table 6-17 Sample 1: 3.99% w/w in 90:10 acetone:water, 30 min",Translucent
same,visual observation,"Table 6-17 Sample 1: 3.99% w/w in 90:10 acetone:water, 1 hour",Translucent
same,visual observation,"Table 6-17 Sample 1: 3.99% w/w in 90:10 acetone:water, 2 hours",Translucent
same,visual observation,"Table 6-17 Sample 1: 3.99% w/w in 90:10 acetone:water, 3.5 hours",Precipitation
same,visual observation,"Table 6-17 Sample 1: 3.99% w/w in 90:10 acetone:water, 4 hours",No change
same,visual observation,"Table 6-17 Sample 1: 3.99% w/w in 90:10 acetone:water, 21.5 hours",No change
same,visual observation,"Table 6-17 Sample 2: 3.99% w/w in 95:5 acetone:water, 30 min",Translucent
same,visual observation,"Table 6-17 Sample 2: 3.99% w/w in 95:5 acetone:water, 1 hour",Translucent
same,visual observation,"Table 6-17 Sample 2: 3.99% w/w in 95:5 acetone:water, 2 hours",Precipitation
same,visual observation,"Table 6-17 Sample 2: 3.99% w/w in 95:5 acetone:water, 3.5 hours",No change
same,visual observation,"Table 6-17 Sample 2: 3.99% w/w in 95:5 acetone:water, 4 hours",No change
same,visual observation,"Table 6-17 Sample 2: 3.99% w/w in 95:5 acetone:water, 21.5 hours",No change
same,visual observation,"Table 6-17 Sample 3: 2.04% w/w in 95:5 acetone:water, 30 min",Translucent
same,visual observation,"Table 6-17 Sample 3: 2.04% w/w in 95:5 acetone:water, 1 hour",No change
same,visual observation,"Table 6-17 Sample 3: 2.04% w/w in 95:5 acetone:water, 2 hours",No change
same,visual observation,"Table 6-17 Sample 3: 2.04% w/w in 95:5 acetone:water, 3.5 hours",No change
same,visual observation,"Table 6-17 Sample 3: 2.04% w/w in 95:5 acetone:water, 4 hours",No change
same,visual observation,"Table 6-17 Sample 3: 2.04% w/w in 95:5 acetone:water, 21.5 hours",No change
same,visual observation,"Table 6-17 Sample 4: 1.84% w/w in 95:5 acetone:water, 30 min",Translucent
same,visual observation,"Table 6-17 Sample 4: 1.84% w/w in 95:5 acetone:water, 1 hour",No change
same,visual observation,"Table 6-17 Sample 4: 1.84% w/w in 95:5 acetone:water, 2 hours",No change
